{"source": "paper PMC12650809", "about": "“Evolving Therapeutic Landscape of ROS1-Positive Non-Small Cell Lung Cancer: An Updated Review” (Current Oncology, 2025)", "origin": "cited, not measured here", "key": {"[1]": {"tested_on": "advanced ROS1-positive NSCLC", "design": "method as in PMID 31669155"}, "[2]": {"tested_on": "ROS1-positive NSCLC", "design": "method as in earlier work", "conditions": "WCLC 2025 Abstract 4540"}, "[3]": {"tested_on": "ROS1-positive NSCLC"}, "[4]": {"tested_on": "ROS1-positive NSCLC", "design": "method as in doi:10.1200/JCO.2024.42.16_suppl.8519", "conditions": "32 TKI-naïve patients"}, "[5]": {"tested_on": "ROS1^G2032R", "design": "method as in PMID 38070596", "conditions": "solvent-front substitution"}, "[6]": {"tested_on": "ROS1^L2086F", "design": "method as in PMID 38070596", "conditions": "for resistance or sensitivity conferred by ROS1^L2086F: L2086F alone or in combination with G2032R or S1986F, preclinical models; for resistance or activity with L2086F: ATP-binding pocket"}, "[7]": {"tested_on": "ROS1-positive NSCLC", "design": "method as in PMID 35227966"}, "[8]": {"tested_on": "ROS1-positive NSCLC", "design": "method as in PMID 28520527"}, "[9]": {"tested_on": "ROS1-positive NSCLC", "remark": "listed apart in the source"}, "[10]": {"conditions": "previously treated with crizotinib"}, "[11]": {"conditions": "after at least one prior ROS1-targeted TKI"}, "[12]": {"conditions": "eight patients with baseline BMs"}}, "note": "Read-outs that look alike come from different tables or passages of the source. Marks after values point to notes of the source that are not given here."}
{"smiles": "C[C@H]1Oc2cc(cnc2N)-c2c(nn(C)c2C#N)CN(C)C(=O)c2ccc(F)cc21", "note": "[Lorlatinib, lorlatinib]", "values": [{"measurement": "ORR", "setting": "[1]; 21 TKI-naïve patients", "value": 62, "unit": "%"}, {"measurement": "median DOR", "setting": "[1]; TKI-naïve patients", "value": 25.3, "unit": "months"}, {"measurement": "median PFS", "setting": "[1]; TKI-naïve patients", "value": 21.0, "unit": "months"}, {"measurement": "intracranial ORR", "setting": "[1]; TKI-naïve, BMs at baseline", "value": 64, "unit": "%"}, {"measurement": "efficacy against ROS1^G2032R mutation", "setting": "[1]; patients with secondary resistance mutations to crizotinib", "value": "limited efficacy"}, {"measurement": "treatment discontinuation due to AEs", "setting": "[1]; pivotal trial", "value": 1, "unit": "%"}, {"measurement": "ORR", "setting": "[1]; [10]", "value": 35, "unit": "%"}, {"measurement": "intracranial ORR", "setting": "[1]; [10]", "value": 50, "unit": "%"}, {"measurement": "median DOR", "setting": "[1]; [10]", "value": 13.8, "unit": "months"}, {"measurement": "activity in patients harboring ROS1^K1991E and ROS1^S1986F mutations", "setting": "[1]; secondary resistance mutations to crizotinib", "value": "showed activity in some patients"}, {"measurement": "ORR if G2032R Mutation (%)", "setting": "[2]; TKI-pretreated patients with G2032R", "value": 0, "unit": "%"}, {"measurement": "IC-ORR (%)", "setting": "[2]; TKI-pretreated patients", "value": 50, "unit": "%"}, {"measurement": "mPFS (Months)", "setting": "[2]; TKI-pretreated patients", "value": 8.5, "unit": "Months"}, {"measurement": "Notable AEs: cognitive effects", "setting": "[3]", "value": 27, "unit": "%"}, {"measurement": "Notable AEs: dizziness", "setting": "[3]", "value": 12, "unit": "%"}, {"measurement": "Notable AEs: hypercholesterolemia", "setting": "[3]", "value": 80, "unit": "%"}, {"measurement": "Notable AEs: mood disorders", "setting": "[3]", "value": 16, "unit": "%"}, {"measurement": "Notable AEs: weight gain", "setting": "[3]", "value": 23, "unit": "%"}, {"measurement": "Discontinuation for AEs (%)", "setting": "[3]; WCLC 2025 Abstract 4540", "value": 1, "unit": "%"}, {"measurement": "Main Grade ≥ 3 AEs: hypercholesterolemia", "setting": "[3]; grade ≥ 3", "value": 15, "unit": "%"}, {"measurement": "Main Grade ≥ 3 AEs: hypertriglyceridemia", "setting": "[3]; grade ≥ 3", "value": 19, "unit": "%"}, {"measurement": "Main Grade ≥ 3 AEs: weight gain", "setting": "[3]; grade ≥ 3", "value": 7, "unit": "%"}, {"measurement": "ORR", "setting": "[4]", "value": 69, "unit": "%"}, {"measurement": "median PFS", "setting": "[4]", "value": 35.8, "unit": "months"}, {"measurement": "resistance or sensitivity with ROS1^G2032R", "setting": "[5]", "value": "high-level resistance"}, {"measurement": "resistance or sensitivity conferred by ROS1^L2086F", "setting": "[6]", "value": "cross-resistance"}, {"measurement": "ORR", "setting": "[7]; 80 patients after at least one prior ROS1-targeted TKI", "value": 45, "unit": "%"}, {"measurement": "intracranial ORR", "setting": "[7]; [11]", "value": 72, "unit": "%"}, {"measurement": "median OS", "setting": "[7]; [11]", "value": 19.6, "unit": "months"}, {"measurement": "median PFS", "setting": "[7]; [11]", "value": 7.1, "unit": "months"}, {"measurement": "median intracranial DOR", "setting": "[7]; non-irradiated brain metastases", "value": 20.6, "unit": "months"}, {"measurement": "treatment discontinuation due to AEs", "setting": "[7]; real-world cohort", "value": 13, "unit": "%"}]}
{"smiles": "COc1cc2nccc(Oc3ccc(NC(=O)C4(C(=O)Nc5ccc(F)cc5)CC4)cc3)c2cc1OC", "note": "[cabozantinib]", "values": [{"measurement": "resistance or sensitivity conferred by ROS1^L2086F", "setting": "[6]", "value": "potentially retaining sensitivity"}, {"measurement": "resistance or activity with L2086F", "setting": "[6]", "value": "preclinical efficacy"}]}
{"smiles": "Cc1cc(Nc2ncc(Cl)c(Nc3ccccc3S(=O)(=O)C(C)C)n2)c(OC(C)C)cc1C1CCNCC1", "note": "[Ceritinib, ceritinib]", "values": [{"measurement": "dose reductions required", "setting": "[8]", "value": 68, "unit": "%"}, {"measurement": "ORR", "setting": "[8]; 32 patients", "value": 62, "unit": "%"}, {"measurement": "median DOR", "setting": "[8]; 32 patients", "value": 21, "unit": "months"}, {"measurement": "anorexia", "setting": "[8]; AEs, predominantly grade 1–2", "value": 56, "unit": "%"}, {"measurement": "diarrhea", "setting": "[8]; AEs, predominantly grade 1–2", "value": 85, "unit": "%"}, {"measurement": "nausea", "setting": "[8]; AEs, predominantly grade 1–2", "value": 72, "unit": "%"}, {"measurement": "vomiting", "setting": "[8]; AEs, predominantly grade 1–2", "value": 45, "unit": "%"}, {"measurement": "ORR", "setting": "[8]; crizotinib-naïve patients", "value": 67, "unit": "%"}, {"measurement": "median OS", "setting": "[8]; crizotinib-naïve patients", "value": 24, "unit": "months"}, {"measurement": "median PFS", "setting": "[8]; crizotinib-naïve patients", "value": 19.3, "unit": "months"}, {"measurement": "CNS disease control rate", "setting": "[8]; [12]", "value": 63, "unit": "%"}, {"measurement": "patients achieving an objective intracranial response", "setting": "[8]; [12]", "value": "two"}, {"measurement": "TKI-Naive ORR (%)", "setting": "[9]; TKI-naïve patients", "value": 67, "unit": "%"}, {"measurement": "mPFS (Months)", "setting": "[9]; TKI-naïve patients", "value": 19.3, "unit": "Months"}, {"measurement": "IC-ORR (%)", "setting": "[9]; TKI-naïve patients evaluable for intracranial ORR", "value": "25 ^b %"}]}
{"smiles": "CCc1nc(C(N)=O)c(Nc2ccc(N3CCC(N4CCN(C)CC4)CC3)c(OC)c2)nc1NC1CCOCC1", "note": "[gilteritinib]", "values": [{"measurement": "resistance or activity with L2086F", "setting": "[6]", "value": "preclinical efficacy"}]}
